Assays:
[1] = tested on: SNU-C4 xenografted nude mice; assay: Biodistribution study in SNU-C4 xenografted nude mice after intravenous injection; type: in vivo, mouse; settings: for % ID/g Tumor: SNU-C4 tumor
Procedure: Human colon cancer cell line SNU-C4 was cultured in RPMI1640 media containing 10% fetal bovine serum and harvested using trypsin. The cells were washed using 10 mL PBS and centrifugation at 3,000 rpm. Each nude mouse was injected with 2×10^5 cells/0.1 mL on the right shoulder subcutaneously. On 13 days post-injection, each 10 μCi/0.1 mL of ^68Ga labeled agent was injected into the xenografted mice through the tail vein. The injected mice were sacrificed at 10 min, 30 min, 1 hr, and 2 hr, cancer, blood, muscle, heart, liver, spleen, stomach, intestine, and bone were obtained, weighed, and their radioactivities were counted. The results were expressed as percentages of injected dose per gram tissue (% ID/g).

CT-26 cells = assay: In vitro cell uptake, CT-26 (FIG. 1b); type: cell-based, mouse; settings: controls ^68Ga-DO2A, ^68Ga-DO3A
Procedure: Human colon cancer cell line SNU-C4 was purchased from Korea Cell Line Bank (KCLB). Human thyroid cell line ARO, human liver cancer cell line Hep3B, human glioma cell line U251MG and U87MG, and mouse colon cell line CT-26 were purchased from American Type Culture Collection (ATCC). SNU-C4 and ARO were culture in RPMI1640 (Welgene Inc., Korea) and Hep3B, U251 MG, U87MG, and CT-26 were cultured in DMEM (Welgene Inc., Korea). Penicillin, streptomycin and amphotericin B (10,000 IU/mL, 10 mg/mL and 25 μg/mL, respectively, Mediatech Inc., U.S.A.) 1% mixture and fetal bovine serum (Welgene Inc., Korea) were added to all cell culture media. Cell culture was done in 37° C. incubator with supply of 5% CO2.
About 1.8×10^5 cells/mL CT-26 and 1.2×10^5 cells/mL U87MG were put into 24-well incubation plate and incubated for 20 hr. When the each well was about 80% confluent with cells, 296 kBq/0.5 mL of ^68Ga labeled agent was added to each well. Culture supernatants were discarded at each time point and cells were washed with ice-cooled Hank's balanced salt solution (HBSS, pH7.3, Gibco, U.S.A.) 2 times. The cells were dissolved by 0.5% sodium dodecylsulfate (SDS), recovered and counted using a gamma counter (Packard, Can berra Co., U.S.A.). Total protein amount in each sample was measured by bicinchonic acid (BCA, Pierce, U.S.A.) method.

[2] = tested on: SNU-C4 xenografted nude mice; assay: PET imaging of tumor xenografted mice; type: in vivo, mouse; settings: PET at 1 and 2 hr post-injection, FIG. 2
Procedure: Human colon cancer cell line SNU-C4 was cultured in RPMI1640 media containing 10% fetal bovine serum and harvested using trypsin. The cells were washed using 10 mL PBS and centrifugation at 3,000 rpm. Each nude mouse was injected with 2×10^5 cells/0.1 mL on the right shoulder subcutaneously. On 14 days post-injection, each 10 μCi/0.1 mL of ^68Ga labeled agent was injected into the xenografted mice through the tail vein. The injected mice were anesthetized using 2% isoflurane, PET images were obtained at 1 and 2 hr post-injection using rodent R4, microPET scanner (Concorde Microsystem Inc.). The images were analyzed using ASIPro software (Concorde Microsystem Inc.).

[3] = 10 min after intravenous injection
[4] = 30 min after intravenous injection
[5] = 1 hr after intravenous injection
[6] = 2 hr after intravenous injection

NC(CN1CCN(CC(=O)[O-])CCNCCN(CC(=O)[O-])CC1)C(=O)[O-].[68Ga+3] (centres unmarked) [^68Ga-DO2A-ala]
% ID/g Tumor [1, 3]: 2.88 ± 0.39 % ID/g | % ID/g Tumor [1, 4]: 2.30 ± 0.53 % ID/g | % ID/g Tumor [1, 5]: 1.05 ± 0.33 % ID/g | % ID/g Tumor [1, 6]: 1.08 ± 0.18 % ID/g | tumor uptake compared with the control heterocyclic compound (in words) ([1]; SNU-C4 xenografted nude mice, 10 min to 2 hr): always higher than that of ^68Ga-DO2A | % ID/g Blood [1, 3]: 7.75 ± 0.97 % ID/g | % ID/g Blood [1, 4]: 5.26 ± 1.36 % ID/g | % ID/g Blood [1, 5]: 3.12 ± 0.89 % ID/g | % ID/g Blood [1, 6]: 1.94 ± 0.24 % ID/g | % ID/g Bone [1, 3]: 2.60 ± 0.56 % ID/g | % ID/g Bone [1, 4]: 2.22 ± 0.49 % ID/g | % ID/g Bone [1, 5]: 1.57 ± 0.52 % ID/g | % ID/g Bone [1, 6]: 1.06 ± 0.52 % ID/g | % ID/g Heart [1, 3]: 1.98 ± 0.06 % ID/g | % ID/g Heart [1, 4]: 1.19 ± 0.34 % ID/g | % ID/g Heart [1, 5]: 0.79 ± 0.34 % ID/g | % ID/g Heart [1, 6]: 0.45 ± 0.10 % ID/g | % ID/g Intestine [1, 3]: 1.91 ± 0.33 % ID/g | % ID/g Intestine [1, 4]: 1.40 ± 0.38 % ID/g | % ID/g Intestine [1, 5]: 3.91 ± 2.96 % ID/g | % ID/g Intestine [1, 6]: 0.77 ± 0.03 % ID/g | % ID/g Kidney [1, 3]: 13.33 ± 4.30 % ID/g | % ID/g Kidney [1, 4]: 14.50 ± 8.89 % ID/g | % ID/g Kidney [1, 5]: 4.71 ± 2.26 % ID/g | % ID/g Kidney [1, 6]: 3.99 ± 0.54 % ID/g | % ID/g Liver [1, 3]: 1.74 ± 0.25 % ID/g | % ID/g Liver [1, 4]: 1.46 ± 0.27 % ID/g | % ID/g Liver [1, 5]: 1.39 ± 0.47 % ID/g | % ID/g Liver [1, 6]: 0.99 ± 0.04 % ID/g | % ID/g Lung [1, 3]: 8.45 ± 0.98 % ID/g | % ID/g Lung [1, 4]: 8.23 ± 2.41 % ID/g | % ID/g Lung [1, 5]: 4.21 ± 1.47 % ID/g | % ID/g Lung [1, 6]: 3.23 ± 0.49 % ID/g | % ID/g Muscle [1, 3]: 2.08 ± 0.43 % ID/g | % ID/g Muscle [1, 4]: 1.81 ± 0.77 % ID/g | % ID/g Muscle [1, 5]: 0.87 ± 0.40 % ID/g | % ID/g Muscle [1, 6]: 0.49 ± 0.08 % ID/g | % ID/g Spleen [1, 3]: 1.61 ± 0.26 % ID/g | % ID/g Spleen [1, 4]: 1.30 ± 0.29 % ID/g | % ID/g Spleen [1, 5]: 1.24 ± 0.34 % ID/g | % ID/g Spleen [1, 6]: 0.82 ± 0.09 % ID/g | % ID/g Stomach [1, 3]: 2.48 ± 0.62 % ID/g | % ID/g Stomach [1, 4]: 1.49 ± 0.62 % ID/g | % ID/g Stomach [1, 5]: 12.82 ± 7.46 % ID/g | % ID/g Stomach [1, 6]: 0.38 ± 0.05 % ID/g | tumor cell uptake versus control agents (CT-26 cells): significantly increase tumor cell uptakes | tumor uptake in PET images [2]: high tumor uptakes

Source: patent US20120029177A1, “HETEROCYCLE-AMINO ACID DERIVATIVES FOR TARGETING CANCER TISSUE AND RADIOACTIVE OR NON-RADIOACTIVE LABELED COMPOUNDS THEREOF” (SNU R&DB FOUNDATION, priority 2009, published 2012)
